We go through 13 molecules from PubChem BioAssay (NCI).

Holding throughout (test): NCI anticancer screen, dose series, 48 h
For assay [1], the system named is A498 renal.
Assay [2] has as its system A549 NSCLC.
For assay [3], the system named is CAKI-1 renal.
Assay [4] deals with DU-145 prostate.
For assay [5], the system named is HCT-116 colon.
Assay [6] concerns HS 578T breast.
The test system of assay [7] is HT29 colon.
The subject of assay [8] is M14 melanoma.
Assay [9] concerns PC-3 prostate.
Assay [10] concerns TK-10 renal.

SMILES strings stand for the structures.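 48-hour exposure; five concentrations; linearly interpolated endpoints. The concentration for 50% growth inhibition is given as GI50. TGI: total growth inhibition.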

As to `C[C@@H](Oc1cc(-c2cnn(C3CCNCC3)c2)cnc1N)c1c(Cl)cc(F)cc1Cl`, the GI50 in [1] was 1.3 µM; in [2], 1.14 µM; in assay [3], 3.17 µM; in [4] it was 3.25 µM; in assay [5] it was 1.12 µM; in assay [6] it was 2.41 µM. Moreover, the GI50 was 1.11 µM in assay [7], 1.54 µM in assay [8], 1.99 µM in [9] and 3.6 µM in assay [10]. Besides, the TGI in [1] stood at 3.82 µM; in [2], 11.3 µM; in assay [3], 12.6 µM; in [4], 13.6 µM; in assay [5], 5.16 µM; in assay [6], 10.1 µM. For the same molecule, the TGI in [7] worked out at 3.56 µM; in assay [8], 3.23 µM; in assay [9] it was 14.7 µM; in assay [10], 11.6 µM.

As for `Cc1ccc(NC2=CC(=O)C(=O)c3ccccc32)cc1`, the GI50 in assay [1] was 1.32 µM; in assay [2] it was 1.72 µM; in assay [3] it was 3.14 µM; in assay [4], 1.53 µM; in assay [5] it was 2.23 µM; in [6], 2.54 µM. The GI50 in assay [7] was 2.14 µM; in assay [8] it was 1.9 µM; in assay [9], 1.87 µM; in [10], 2.83 µM. The TGI stood at 5.41 µM in [1]; 3.68 µM in assay [2]; 16.5 µM in assay [3]; 2.91 µM in assay [4]; 9.13 µM in assay [5]; 7.26 µM in assay [6]. The TGI in [7] came to 4.47 µM; in [8], 3.79 µM; in [9], 15.7 µM; in assay [10], 11 µM.

Consider `OCC1OC(n2cnc3c(NCc4ccccc4O)ncnc32)C(O)C1O` (stereo unspecified), for which the GI50 in assay [1] was 1.21 µM; in [2], 26.5 µM; in [3], 0.349 µM; in assay [4] it was 0.224 µM; in assay [5], 0.131 µM; in assay [6], 1.96 µM. For the same molecule, the GI50 is 2.23 µM in assay [7], 0.756 µM in assay [8], 0.523 µM in assay [9] and 0.322 µM in [10]. The TGI in assay [1] is 6.09 µM; in assay [2] it was over 100 µM; in [3], 9.43 µM; in assay [4], over 32 µM; in [5], 3.4 µM; in assay [6], over 58.6 µM. Besides, the TGI in [7] is 52.9 µM; in assay [8] it was 11.8 µM; in assay [9] it was over 50.1 µM; in [10], over 52.6 µM.

Turning to `Cc1ccc(C2C3Cc4ccccc4C3=NN2c2ccc(S(=O)(=O)NC(=O)Nc3ccccc3)cc2)cc1` (stereo unspecified), the GI50 in assay [1] was 15.6 µM; in assay [2], 12.7 µM; in assay [3], 14.6 µM; in [4], 14.2 µM; in assay [5], 3.4 µM; in assay [6], 17.4 µM. The GI50 in [7] was 24.3 µM; in [8], 17 µM; in [9] it was 13.5 µM; in [10] it was 16 µM. In addition, the TGI worked out at 30.7 µM in [1]; 27.8 µM in assay [2]; 37.9 µM in assay [3]; 27.2 µM in assay [4]; 49.1 µM in assay [5]; 49.9 µM in assay [6]. The TGI in assay [7] was over 100 µM; in assay [8], 40.3 µM; in assay [9] it was 26.3 µM; in assay [10], 36.4 µM.

On to `NC(=O)c1ncn2c(=O)n(CCCl)nnc12`, for which the TGI in assay [1] turned out to be 375 µM; in assay [2], 628 µM; in assay [3], 548 µM; in assay [4] it was 520 µM; in assay [5] it was 369 µM; in [6] it was 695 µM. Moreover, the TGI in assay [7] is 367 µM; in assay [8], 500 µM; in assay [9], 534 µM; in [10], 651 µM. Also, the GI50 in assay [3] is 91.4 µM.

For `Nc1no[n+]([O-])c1-c1nnc2c(n1)-c1ccccc1C2=O`, the GI50 in assay [1] is 22.2 µM; in assay [2], 5.44 µM; in [3] it was 2.3 µM; in [4], 1.74 µM; in assay [5] it was 1.38 µM; in assay [6] it was 5.58 µM. Moreover, the GI50 is 2.41 µM in [7], 1.78 µM in [8], 2.91 µM in assay [9] and 13.9 µM in assay [10]. The TGI in assay [1] is 63.2 µM; in [2], 20.3 µM; in assay [3], 6.67 µM; in [4], 3.45 µM; in assay [5], 3.62 µM; in [6], 65 µM. For the same molecule, the TGI in [7] is 6.74 µM; in [8] it was 3.66 µM; in assay [9], 12.6 µM; in assay [10], 27.6 µM.

`C=C1C(O)C2CC(C)(C)C(=O)C2=C(CC(C)C)C12CC2` (stereo unspecified): the GI50 in assay [1], in [2], in [3], in [4], in assay [5] and in [6] was over 100 µM in each case. Besides, the GI50 in assay [7], in assay [8], in assay [9] and in [10] was over 100 µM throughout. Also, the TGI in [1], in [2], in assay [3], in [4], in assay [5] and in [6] was over 100 µM each time. Moreover, the TGI in [7], in assay [8], in assay [9] and in [10] was over 100 µM throughout.

For the molecule `CCC(=C(c1ccc(OCCN2CCCC2)cc1)c1ccc(OCCN2CCCC2)cc1)c1ccc(Cl)cc1`, the GI50 in assay [1] was 1.28 µM; in [2], 0.594 µM; in assay [3] it was 0.52 µM; in [4], 0.617 µM; in assay [5] it was 0.545 µM; in assay [6], 0.659 µM. Further, the GI50 in [7] is 0.511 µM; in [8], 0.629 µM; in [9], 0.569 µM; in assay [10], 0.628 µM. Further, the TGI stood at 2.82 µM in assay [1]; 1.21 µM in assay [2]; 0.992 µM in assay [3]; 1.14 µM in assay [4]; 1.05 µM in [5]; 1.52 µM in [6]. The TGI amounted to 1.15 µM in assay [7], 1.18 µM in assay [8], 1.2 µM in assay [9] and 1.33 µM in assay [10].

With `N/C(=N/S(=O)(=O)c1cc(C(=O)Nc2ccc(F)cc2)c(Cl)cc1SCc1ccccc1)Nc1ccccc1O`, the GI50 in [1] is 16.3 µM; in [2], 2.36 µM; in assay [3], 23.8 µM; in assay [4] it was 1.83 µM; in assay [5] it was 1.95 µM; in [6], 1.72 µM. The GI50 was 11 µM in assay [7], 3.87 µM in assay [8], 2.08 µM in assay [9] and 2.8 µM in [10]. In addition, the TGI was 30.5 µM in assay [1]; 4.71 µM in assay [2]; over 100 µM in [3]; 3.56 µM in [4]; 4 µM in assay [5]; 3.8 µM in assay [6]. Also, the TGI in assay [7] was over 100 µM; in assay [8], 14.4 µM; in [9] it was 4.61 µM; in assay [10] it was 8.61 µM.

With `C1=C\CCCCN2CC[C@H]3[C@H](CCCC/C=C\CCCN4C[C@@H](CCCCC/1)C[C@@H]3C4)C2`, the GI50 was 6.31 µM in assay [1]; 12.1 µM in assay [2]; 5.13 µM in assay [3]; 11.7 µM in [4]; 4.33 µM in [5]; 5.22 µM in assay [6]. The GI50 is 3.28 µM in assay [7], 1.77 µM in assay [8], 14 µM in assay [9] and 2.98 µM in assay [10]. For the same molecule, the TGI was 21.4 µM in assay [1]; 26.8 µM in assay [2]; 14.1 µM in [3]; 23.9 µM in [4]; 20.8 µM in assay [5]; 15.4 µM in assay [6]. Moreover, the TGI in [7] came to 12.9 µM; in assay [8] it was 3.44 µM; in assay [9] it was 36.6 µM; in assay [10], 12.4 µM.

Take `CCC(C)C(=O)OC1CCC=C2C=CC(C)C(CCC3CC(O)CC(=O)O3)C21` (stereo unspecified): the TGI in assay [1] is over 66 µM; in [2] it was over 100 µM; in [3], 29 µM; in assay [4] it was over 100 µM; in assay [5] it was over 100 µM; in assay [6], 17.4 µM. The TGI in assay [7] was over 100 µM; in [8], over 27.5 µM; in [9], over 47.9 µM; in assay [10], 98.8 µM.

On to `O=C(O)c1cc(Cl)cc(Cc2cc(Cl)cc(C(=O)O)c2O)c1O`, for which the TGI in assay [1], in [2], in [3], in assay [4], in assay [5] and in [6] was over 100 µM throughout. The TGI in [7], in assay [8], in assay [9] and in [10] was over 100 µM throughout.

In the case of `CCOC(=O)c1cc2c(n1Cc1cc(OC)cc(OC)c1)-c1oncc1CC2`, the GI50 in assay [1] was 0.0532 µM; in assay [2], 0.27 µM; in [3], 0.102 µM; in assay [4], 0.216 µM; in [5], 0.157 µM; in assay [6] it was 0.156 µM. For the same molecule, the GI50 in assay [7] is 0.073 µM; in [8], 0.163 µM; in assay [9], 0.383 µM; in [10], 3.58 µM. In addition, the TGI is 0.779 µM in assay [1]; over 100 µM in assay [2]; over 100 µM in assay [3]; 25.7 µM in [4]; over 100 µM in assay [5]; over 96.2 µM in assay [6]. The TGI in assay [7], in assay [8], in assay [9] and in assay [10] was over 100 µM each time.
